Tests used:
JMJD2C = JMJD2C (Homo sapiens (Human), UniProt Q9H3R0); assay: In vitro enzyme inhibition assay for JMJD2C activity (TR-FRET); type: biochemical
Method: This assay determines the ability of a test compound to inhibit JMJD2C demethylase activity. Baculovirus expressed JMJD2C (GenBank Accession #BC143571, AA 2-372) was purchased from BPS Bioscience (Cat#50105).
The ability of test compounds to inhibit the activity of JMJD2C was determined in 384-well plate format under the following reaction conditions: 0.3 nM JMJD2C, 300 nM H3K9me3-biotin labeled peptide (Anaspec cat #64360), 2 μM alpha-ketoglutaric acid in assay buffer of 50 mM HEPES, pH7.3, 0.005% Brij35, 0.5 mM TCEP, 0.2 mg/ml BSA, 50 μM sodium L-ascorbate, and 2 μM ammonium iron(II) sulfate. Reaction product was determined quantitatively by TR-FRET after the addition of detection reagent Phycolink Streptavidin-allophycocyanin (Prozyme) and Europium-anti-di-methylated histone H3 lysine 9 (H3K9me2) antibody (PerkinElmer) in the presence of 5 mM EDTA in LANCE detection buffer (PerkinElmer) at a final concentration of 50 nM and 1 nM, respectively.
The assay reaction was initiated by the following: 2 μl of the mixture of 900 nM H3K9me3-biotin labeled peptide and 6 μM alpha-ketoglutaric acid with 2 μl of 11-point serial diluted inhibitor in 3% DMSO were added to each well of the plate, followed by the addition of 2 μl of 0.9 nM JMJD2C to initiate the reaction. The reaction mixture was incubated at room temperature for 30 minutes, and terminated by the addition of 6 μl of 5 mM EDTA in LANCE detection buffer containing 100 nM Phycolink Streptavidin-allophycocyanin and 2 nM Europium-anti-H3K9me2 antibody. Plates were read by EnVisionMultilabel Reader in TR-FRET mode (excitation at 320 nm, emission at 615 nm and 665 nm) after 1 hour incubation at room temperature. A ratio was calculated (665/615) for each well and fitted to determine inhibition constant (IC50).

[1] = system: KYSE-150 esophageal carcinoma cell line; assay: In vitro cell-based assay: cellular proliferation via BrdU incorporation (ELISA); set-up: species or system human; conditions: KYSE-150, 168 hours compound incubation
Method: The primary cellular assay for JMJD2C inhibition is an assay which measures cellular proliferation via Bromodeoxyuridine (BrdU) incorporation after 168 hours of compound incubation. Cell lines tested include the JMJD2C gene amplified cell line KYSE-150. This is a quantitative ELISA assay measuring DNA incorporation of BrdU during S-phase as a direct readout of cellular proliferation.
Assay Principle: This is a colorimetric immunoassay for the quantification of cell proliferation. Cells treated for 168 hours with test compounds are assayed for their ability to go through S-phase as a measure of their proliferative potential.
Assay Method: The human KYSE-150 (SMAD4 mut, TP53 mut) esophageal carcinoma cell line was seeded at 2,000 cells/well on a 96-well tissue culture treated plate. After an overnight incubation, cells were treated with compound in an 11-point dilution series with final concentrations ranging from 100 μM to 2 nM. Cells were then incubated in the presence of compound for 168 hours. After compound incubation the cells were assayed using a BrdU Cell Proliferation ELISA (Roche). The cells were first incubated with BrdU labeling reagent for 2 hours. After 2 hours, the BrdU incorporated cells were fixed and denatured, probed with an anti-BrdU-Peroxidase antibody for 1.5 hours and washed. Finally, a tetramethylbenzidine peroxidase substrate was added to each well for 15 minutes followed by a H2SO4 stop solution. The plate was read at 450 nm, and the raw optical density data was transferred into XLFit (IDBS) for IC50 calculation using the formula: fit=(D+((Vmax*(x^n))/((x^n)+(Km^n))))

JMJD2C, sequence (Q9H3R0 2-372): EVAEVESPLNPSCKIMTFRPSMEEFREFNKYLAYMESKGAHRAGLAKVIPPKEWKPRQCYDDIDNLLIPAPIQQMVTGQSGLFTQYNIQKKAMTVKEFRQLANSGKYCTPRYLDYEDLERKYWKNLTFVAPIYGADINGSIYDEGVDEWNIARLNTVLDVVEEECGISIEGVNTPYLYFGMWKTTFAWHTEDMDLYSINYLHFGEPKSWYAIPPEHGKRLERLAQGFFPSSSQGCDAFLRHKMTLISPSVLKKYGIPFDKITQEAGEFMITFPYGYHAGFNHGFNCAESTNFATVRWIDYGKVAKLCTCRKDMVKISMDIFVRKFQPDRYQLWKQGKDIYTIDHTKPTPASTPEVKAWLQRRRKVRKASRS

In the case of “3-({[(1R)-6-[cyclopentyl(methyl)amino]-1,2,3,4-tetrahydronaphthalen-1-yl]methyl}amino)pyridine-4-carboxylic acid [Example 133]”, the IC50 (JMJD2C) is reported as 0.1 to 1 µM and the IC50 [1] is reported as 1 to 10 µM.
“3-({[(1R)-6-[methyl(2-methyl-1,3-thiazol-4-yl)amino]-1,2,3,4-tetrahydronaphthalen-1-yl]methyl}amino)pyridine-4-carboxylic acid [Example 139]” gave an IC50 (JMJD2C) of 0.1 to 1 µM and an IC50 [1] of at most 0.1 µM.
For `C[C@@H](O)c1ccc(N(C)c2ccc3c(c2)CCC[C@H]3CNc2cnccc2C(=O)O)cc1` (single isomer, unassigned) [Example 168], the IC50 ([1]; Homo sapiens) was at most 0.1 µM.
`C[C@H](O)c1ccc(N(C)c2ccc3c(c2)CCC[C@H]3CNc2cnccc2C(=O)O)cc1` (single isomer, unassigned) [Example 169] gave an IC50 ([1]; Homo sapiens) of at most 0.1 µM.
`O=C(O)c1ccncc1NCC1CCCc2cc(N3CCCC3=O)ccc21` (centres unmarked) [Example 3, 3-({[6-(2-oxopyrrolidin-1-yl)-1,2,3,4-tetrahydronaphthalen-1-yl]methyl}amino)pyridine-4-carboxylic acid] was tested, and the IC50 (JMJD2C) was 0.1 to 1 µM and the IC50 ([1]; Homo sapiens) was over 10 µM.
With `O=C(O)c1ccncc1NCC1CCCc2cc(N3CCCc4ccccc43)ccc21` (centres unmarked) [Example 4, 3-({[6-(1,2,3,4-tetrahydroquinolin-1-yl)-1,2,3,4-tetrahydronaphthalen-1-yl]methyl}amino)pyridine-4-carboxylic acid] the IC50 (JMJD2C) was 1 to 10 µM and the IC50 ([1]; Homo sapiens) was 0.1 to 1 µM.
With `O=C(O)c1ccncc1NCC1CCCc2cc(N3CCc4ccccc43)ccc21` (centres unmarked) [Example 5, 3-({[6-(2,3-dihydro-1H-indol-1-yl)-1,2,3,4-tetrahydronaphthalen-1-yl]methyl}amino)pyridine-4-carboxylic acid] the IC50 (JMJD2C) was 1 to 10 µM and the IC50 ([1]; Homo sapiens) was 0.1 to 1 µM.
Work on `CN(c1ccc2c(c1)CCC[C@H]2CNc1cnccc1C(=O)O)c1ccccc1F` [Example 6, 3-({[(1R)-6-[(2-fluorophenyl)(methyl)amino]-1,2,3,4-tetrahydronaphthalen-1-yl]methyl}amino)pyridine-4-carboxylic acid] yielded an IC50 (JMJD2C) of 0.1 to 1 µM and an IC50 ([1]; Homo sapiens) of at most 0.1 µM.
With `CN(c1cccc(F)c1)c1ccc2c(c1)CCC[C@H]2CNc1cnccc1C(=O)O` [Example 7, 3-({[(1R)-6-[(3-fluorophenyl)(methyl)amino]-1,2,3,4-tetrahydronaphthalen-1-yl]methyl}amino)pyridine-4-carboxylic acid] the IC50 (JMJD2C) was 0.1 to 1 µM and the IC50 ([1]; Homo sapiens) was at most 0.1 µM.
In the case of `CN(c1ccc(F)cc1)c1ccc2c(c1)CCC[C@H]2CNc1cnccc1C(=O)O` [Example 8, 3-({[(1R)-6-[(4-fluorophenyl)(methyl)amino]-1,2,3,4-tetrahydronaphthalen-1-yl]methyl}amino)pyridine-4-carboxylic acid], the IC50 (JMJD2C) is reported as 0.1 to 1 µM and the IC50 ([1]; Homo sapiens) is reported as at most 0.1 µM.
`CN(c1ccc(Cl)cc1)c1ccc2c(c1)CCC[C@H]2CNc1cnccc1C(=O)O` [Example 9, 3-({[(1R)-6-[(4-chlorophenyl)(methyl)amino]-1,2,3,4-tetrahydronaphthalen-1-yl]methyl}amino)pyridine-4-carboxylic acid] gave an IC50 (JMJD2C) of 1 to 10 µM and an IC50 ([1]; Homo sapiens) of at most 0.1 µM.
In the case of `CCN(c1ccccc1)c1ccc2c(c1)CCC[C@H]2CNc1cnccc1C(=O)O` [Example 10, 3-({[(1R)-6-[ethyl(phenyl)amino]-1,2,3,4-tetrahydronaphthalen-1-yl]methyl}amino)pyridine-4-carboxylic acid], the IC50 (JMJD2C) is reported as 0.1 to 1 µM and the IC50 ([1]; Homo sapiens) is reported as at most 0.1 µM.
For `CN(c1cccnc1)c1ccc2c(c1)CCC[C@H]2CNc1cnccc1C(=O)O` [Example 12, 3-({[(1R)-6-[methyl(pyridin-3-yl)amino]-1,2,3,4-tetrahydronaphthalen-1-yl]methyl}amino)pyridine-4-carboxylic acid], the IC50 (JMJD2C) was at most 0.1 µM and the IC50 ([1]; Homo sapiens) was 0.1 to 1 µM.
`COc1ccc(N(C)c2ccc3c(c2)CCC[C@H]3CNc2cnccc2C(=O)O)cn1` [Example 13, 3-({[(1R)-6-[(6-methoxypyridin-3-yl)(methyl)amino]-1,2,3,4-tetrahydronaphthalen-1-yl]methyl}amino)pyridine-4-carboxylic acid] was tested, and the IC50 (JMJD2C) was 0.1 to 1 µM and the IC50 ([1]; Homo sapiens) was 0.1 to 1 µM.
`O=C(O)c1ccncc1NCC1CCOc2cc(Br)ccc21` (centres unmarked) [Example 14, 3-{[(7-bromo-3,4-dihydro-2H-1-benzopyran-4-yl)methyl]amino}pyridine-4-carboxylic acid] was tested, and the IC50 (JMJD2C) was 0.1 to 1 µM and the IC50 ([1]; Homo sapiens) was over 10 µM.
`O=C(O)c1ccncc1NCC1CCOc2cc(Nc3ccccc3)ccc21` (centres unmarked) [Example 15, 3-({[7-(phenylamino)-3,4-dihydro-2H-1-benzopyran-4-yl]methyl}amino)pyridine-4-carboxylic acid] gave an IC50 (JMJD2C) of 0.1 to 1 µM and an IC50 ([1]; Homo sapiens) of 1 to 10 µM.
For `CN(c1ccc2c(c1)OCC[C@H]2CNc1cnccc1C(=O)O)c1ccccc1F` [Example 19, 3-({[(4R)-7-[(2-fluorophenyl)(methyl)amino]-3,4-dihydro-2H-1-benzopyran-4-yl]methyl}amino)pyridine-4-carboxylic acid], the IC50 (JMJD2C) was 0.1 to 1 µM and the IC50 ([1]; Homo sapiens) was at most 0.1 µM.
Work on `O=C(O)c1ccncc1NCC1CCOc2cc(-c3ccc(C(F)(F)F)cc3)ccc21` (centres unmarked) [Example 27, 3-[({7-[4-(trifluoromethyl)phenyl]-3,4-dihydro-2H-1-benzopyran-4-yl}methyl)amino]pyridine-4-carboxylic acid] yielded an IC50 (JMJD2C) of 1 to 10 µM and an IC50 ([1]; Homo sapiens) of 1 to 10 µM.
Molecule `Cc1cccc(-c2ccc3c(c2)OCC[C@H]3CNc2cnccc2C(=O)O)c1` [Example 30, 3-({[(4R)-7-(3-methylphenyl)-3,4-dihydro-2H-1-benzopyran-4-yl]methyl}amino)pyridine-4-carboxylic acid] has an IC50 (JMJD2C) of 0.1 to 1 µM and an IC50 ([1]; Homo sapiens) of 0.1 to 1 µM.
With `Cc1ccc(-c2ccc3c(c2)OCC[C@H]3CNc2cnccc2C(=O)O)cc1` [Example 32, 3-({[(4R)-7-(4-methylphenyl)-3,4-dihydro-2H-1-benzopyran-4-yl]methyl}amino)pyridine-4-carboxylic acid] the IC50 (JMJD2C) was 0.1 to 1 µM and the IC50 ([1]; Homo sapiens) was 1 to 10 µM.
`O=C(O)c1ccncc1NC[C@@H]1CCOc2cc(C3CCCCC3)ccc21` [Example 35, 3-({[(4R)-7-cyclohexyl-3,4-dihydro-2H-1-benzopyran-4-yl]methyl}amino)pyridine-4-carboxylic acid] showed an IC50 ([1]; Homo sapiens) of 1 to 10 µM.
With `O=C(O)c1ccncc1NC[C@@H]1CCCc2cc(N3CCCCc4ccccc43)ccc21` [Example 162, 3-({[(1R)-6-(2,3,4,5-tetrahydro-1H-1-benzazepin-1-yl)-1,2,3,4-tetrahydronaphthalen-1-yl]methyl}amino)pyridine-4-carboxylic acid] the IC50 (JMJD2C) was 1 to 10 µM.
`CN(c1ccc(OC(F)(F)F)cc1)c1ccc2c(c1)CCC[C@H]2CNc1cnccc1C(=O)O` [Example 181, 3-({[(1R)-6-{methyl[4-(trifluoromethoxy)phenyl]amino}-1,2,3,4-tetrahydronaphthalen-1-yl]methyl}amino)pyridine-4-carboxylic acid] was tested, and the IC50 (JMJD2C) was 0.1 to 1 µM.
In the case of `CN(c1ccc(N2CC(F)(F)C2)cc1)c1ccc2c(c1)CCC[C@H]2CNc1cnccc1C(=O)O` [Example 195, 3-({[(1R)-6-{[4-(3,3-difluoroazetidin-1-yl)phenyl](methyl)amino}-1,2,3,4-tetrahydronaphthalen-1-yl]methyl}amino)pyridine-4-carboxylic acid], the IC50 (JMJD2C) is reported as 0.1 to 1 µM.
In the case of `CN(c1ccc(CC2CC2)cc1)c1ccc2c(c1)OCC[C@H]2CNc1cnccc1C(=O)O` [Example 215, 3-({[(4R)-7-{[4-(cyclopropylmethyl)phenyl](methyl)amino}-3,4-dihydro-2H-1-benzopyran-4-yl]methyl}amino)pyridine-4-carboxylic acid], the IC50 (JMJD2C) is reported as 0.1 to 1 µM.
With `CN(c1ccc(C(=O)C2CC2)cc1)c1ccc2c(c1)OCC[C@H]2CNc1cnccc1C(=O)O` [Example 216, 3-({[(4R)-7-[(4-cyclopropanecarbonylphenyl)(methyl)amino]-3,4-dihydro-2H-1-benzopyran-4-yl]methyl}amino)pyridine-4-carboxylic acid] the IC50 (JMJD2C) was 0.1 to 1 µM.
